This is an account of results in patent US20120184562A1, “1,6- AND 1,8-NAPHTHYRIDINES” (priority 2011, published 2012).

Assay [1] deals with SW620 human colon cancer cells. Nature of the assay: SW620 Cell Viability Assay. The class given is cell-based. The conditions noted are these: SW-620, 96 h, 4 days incubation, CellTiter-Glo Luminescent Cell Viability Assay, read-out: Cellular EC50 (μM) SW620. The procedure: SW620 Cell Viability Assay
1. Cell Plate Preparation: SW620 human colon cancer cells (known to express DYRK1B), obtained from ATCC, were seeded into 96-well plates at 3×10^3 cells/well in 50 μL of media. • Harvested the required number of cells (counts & viability determined by Guava Viacount). • Centrifuge cells to pellet and removed supernant. • Resuspended in growth media (50 μL/well) & pipetted thoroughly to break up clumps. • Setup for ˜100 wells/plate, therefore, VT=5 mL/plate @ […]. 1A. Some cells (S—) were allowed to attach for 24 hrs, serum starved for 48 hrs, and then followed with drug treatments. Test compound solution were prepared in regular corresponding media supplemented with serum. 2. Test Compound Preparation: Test compounds were solubilized in either DMSO or media and prepared at various stock concentrations. • All compounds were incubated at 37° C. for 30 minutes and vortexed. • (5 mM stocks of test compound were prepared for non-soluble compounds)
• The 10 mM test compound stock was diluted to a concentration of 100× the final Cmax concentration. • Then the test compound stock is diluted 50-fold in media and/or second compound for a final Cmax concentration in the test compound plate. • The Cmax in the test compound plate (2% DMSO) is 2-fold higher than the final Cmax in the cell plate (60 uL titrations were 1:3). 4. Viability Assay: This assay was performed as follows: • Transfer 50 μL of test compound solution per well from the test compound plate onto the cell plate prepared in Step #1. • Mix the plate with treated cells by pipetting up and down three times with 200 μL multi-channel pipette. • Incubate the cells in 5% CO2 incubator @ 37° C. for 4 days. • Run the CellTiter-Glo™ Luminescent Cell Viability Assay.
The results of this assay, given as EC50 values, indicate the concentration of test compound that inhibits tumor cell proliferation by 50%.
On the technique in general: In ATP-based viability assays light output follows the ATP content of the culture.

The target in another assay is T1, Human DYRK1B (Homo sapiens, UniProt Q9Y463).
T1 construct: purchased Invitrogen PR8350B (former PV4649)
Nature of the assay: DYRK1B Kinase TR-FRET (IMAP-Tb) Assay. The settings on record: TR-FRET (IMAP-Tb); ATP 70 μM; 37° C., 60 minutes; average of multiple runs; read-out: Enzyme IC50 (μM) DYRK1B. The class given is biochemical.

The target of a further assay is T2, Human DYRK1A (Homo sapiens, UniProt Q13627).
T2 construct: purchased Invitrogen PV3997
Nature of the assay: DYRK1A Kinase TR-FRET (IMAP-Tb) Assay. The format is biochemical. The conditions noted are these: TR-FRET (IMAP-Tb); ATP 70 μM; 37° C., 60 minutes; average of multiple runs; read-out: Enzyme IC50 (μM) DYRK1A. Background: TR-FRET usually uses a lanthanide donor and a delayed reading to cut background.

SMILES strings stand for the structures. Some results are limits rather than exact numbers.

For orientation: EC50 means the midpoint of the concentration-response curve. Broadly, the IC50 is the point on the concentration scale where inhibition reaches its midpoint.

T1 sequence (Q9Y463 whole entry): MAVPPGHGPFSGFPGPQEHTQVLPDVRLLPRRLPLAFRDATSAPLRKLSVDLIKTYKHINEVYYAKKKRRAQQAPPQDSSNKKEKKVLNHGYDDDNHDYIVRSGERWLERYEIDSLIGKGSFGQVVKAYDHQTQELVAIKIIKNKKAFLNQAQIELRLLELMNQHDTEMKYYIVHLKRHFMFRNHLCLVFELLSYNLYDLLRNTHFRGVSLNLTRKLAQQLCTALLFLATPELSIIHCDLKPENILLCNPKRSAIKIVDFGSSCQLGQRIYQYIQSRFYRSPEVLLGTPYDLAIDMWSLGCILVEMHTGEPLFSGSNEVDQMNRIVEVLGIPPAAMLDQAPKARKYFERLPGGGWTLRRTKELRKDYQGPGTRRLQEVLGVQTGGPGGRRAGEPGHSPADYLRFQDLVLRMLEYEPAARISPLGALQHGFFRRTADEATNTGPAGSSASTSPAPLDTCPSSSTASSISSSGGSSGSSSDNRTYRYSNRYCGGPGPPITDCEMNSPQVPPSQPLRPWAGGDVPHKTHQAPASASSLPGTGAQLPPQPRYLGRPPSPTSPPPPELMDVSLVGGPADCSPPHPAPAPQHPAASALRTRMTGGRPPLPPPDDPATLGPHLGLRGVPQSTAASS

Turning to `COC(=O)c1ccc(Cl)c(NC(=O)c2cc3cnc(OC)cc3[nH]c2=O)c1` [Example 30, 4-Chloro-3-[(7-methoxy-2-oxo-1,2-dihydro-[1,6]naphthyridine-3-carbonyl)-amino]-benzoic acid methyl ester], the EC50 in assay [1] was over 10 µM. For the same compound, the IC50 at Human DYRK1B amounted to 0.119 µM; at Human DYRK1A it was 0.135 µM.

`COc1cc2[nH]c(=O)c(C(=O)Nc3cc(C(=O)NC(CCN)c4ccsc4)ccc3C)cc2cn1` (stereo not drawn) [Example 63, 7-Methoxy-2-oxo-1,2-dihydro-[1,6]naphthyridine-3-carboxylic acid [5-(3-amino-1-thiophen-3-yl-propylcarbamoyl)-2-methyl-phenyl]-amide]: the EC50 in assay [1] amounted to 0.205 µM. In addition, the IC50 was 0.023 µM on Human DYRK1B and 0.0046 µM on Human DYRK1A.
